Assay results: ChEMBL document CHEMBL1201862, “PubChem BioAssay data set” (2004)
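Compound exposure: 48 hours, 5 concentrations, 96-well plates. GI50: concentration for 50% inhibition of growth.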 Activity calls are given as the source filed them. Cut-off read from the data, not from the text of the source: active = GI50 up to about 1.1 µM and inactive = higher.

Experiments:
Assay in all cases: DTP human tumour cell line panel, 48 h
NCI-H23 = tested on: NCI-H23
NCI-H226 = tested on: NCI-H226
NCI-H460 = tested on: NCI-H460
HOP-92 = tested on: HOP-92
OVCAR-8 = tested on: OVCAR-8
A498 = tested on: A498
MOLT-4 = tested on: MOLT-4
SR = tested on: SR
KM12 = tested on: KM12
UO-31 = tested on: UO-31
OVCAR-4 = tested on: OVCAR-4
ACHN = tested on: ACHN
NCI-H522 = tested on: NCI-H522
UACC-62 = tested on: UACC-62
SK-MEL-5 = tested on: SK-MEL-5
M14 = tested on: M14
TK-10 = tested on: TK-10
BT-549 = tested on: BT-549
Hs-578T = tested on: Hs-578T
T47D = tested on: T47D

Measured: GI50

COc1ccc(/C=N/N=C(\N)NO)c(OC)c1C
inactive: NCI-H23 19.5 µM | NCI-H226 15.2 µM | NCI-H460 15.6 µM | HOP-92 19.8 µM | OVCAR-8 20.2 µM | A498 25.4 µM | MOLT-4 22.2 µM | SR 28.2 µM | KM12 29.2 µM | UO-31 10.2 µM | OVCAR-4 22.9 µM | ACHN 11.1 µM | NCI-H522 12.5 µM | UACC-62 16.3 µM

CSc1nc2c(c(O)c(C)c(=O)n2C2OCC(OC(C)=O)C(OC(C)=O)C2OC(C)=O)c(=O)n1C (stereo not drawn)
inactive: NCI-H23 > 100 µM | NCI-H226 > 100 µM | NCI-H460 > 100 µM | HOP-92 > 100 µM | OVCAR-8 > 100 µM | A498 > 100 µM | MOLT-4 > 100 µM | SK-MEL-5 > 100 µM | M14 > 100 µM | SR > 100 µM | TK-10 > 100 µM | KM12 > 100 µM | UO-31 > 100 µM | OVCAR-4 > 100 µM | ACHN > 100 µM | NCI-H522 > 100 µM | UACC-62 > 100 µM

CCCCCCSCC/C(C)=N\OC
inactive: NCI-H23 > 100 µM | NCI-H226 > 100 µM | NCI-H460 > 100 µM | HOP-92 > 100 µM | OVCAR-8 > 100 µM | A498 > 100 µM | MOLT-4 > 100 µM | SK-MEL-5 > 100 µM | M14 > 100 µM | TK-10 > 100 µM | BT-549 > 100 µM | KM12 > 100 µM | UO-31 > 100 µM | OVCAR-4 > 100 µM | ACHN > 100 µM | NCI-H522 > 100 µM | UACC-62 > 100 µM

COC(=O)C1Cc2c([nH]c3ccccc23)-c2[nH]c3ccccc3c2CC(NC(C)=O)C(=O)NCC(=O)N1 (stereo not drawn)
inactive: NCI-H23 > 100 µM | NCI-H226 > 100 µM | NCI-H460 > 100 µM | Hs-578T > 100 µM | HOP-92 77.4 µM | OVCAR-8 > 100 µM | MOLT-4 > 100 µM | SK-MEL-5 > 100 µM | TK-10 > 100 µM | KM12 > 100 µM | UO-31 > 100 µM | OVCAR-4 > 100 µM | T47D > 100 µM | ACHN > 100 µM | NCI-H522 > 100 µM | UACC-62 > 100 µM

Cc1n[nH]c(=O)n1/N=C/c1ccc([N+](=O)[O-])o1
inactive: NCI-H23 13.8 µM | NCI-H226 15.6 µM | NCI-H460 14.3 µM | OVCAR-8 15.2 µM | A498 22.1 µM | MOLT-4 5.7 µM | SK-MEL-5 3.56 µM | M14 11.6 µM | TK-10 18.1 µM | BT-549 21.8 µM | KM12 13.7 µM | UO-31 14.5 µM | OVCAR-4 16.7 µM | T47D 19.5 µM | ACHN 10.9 µM | NCI-H522 3.13 µM | UACC-62 13.1 µM

COC(=O)[C@]12CSC[C@H]1C[C@H](c1cccc3ccccc13)N2
inactive: NCI-H23 91.2 µM | NCI-H226 96.2 µM | NCI-H460 44.3 µM | HOP-92 > 100 µM | OVCAR-8 > 100 µM | A498 > 100 µM | MOLT-4 18.2 µM | SK-MEL-5 > 100 µM | M14 > 100 µM | SR 37.8 µM | BT-549 > 100 µM | KM12 > 100 µM | UO-31 > 100 µM | T47D > 100 µM | ACHN 39.4 µM | UACC-62 > 100 µM

CCOc1ccc(NCC2CC/C(=C\c3ccc(Cl)cc3)C2=O)cc1 (stereo not drawn)
inactive: NCI-H23 > 48.9 µM | NCI-H226 > 100 µM | NCI-H460 89.3 µM | HOP-92 20.3 µM | OVCAR-8 > 38.3 µM | A498 > 49.5 µM | MOLT-4 16.8 µM | SK-MEL-5 23 µM | M14 20.4 µM | SR 12.1 µM | TK-10 34.6 µM | KM12 14.2 µM | UO-31 > 42.5 µM | OVCAR-4 39.7 µM | ACHN > 40.6 µM | NCI-H522 6.25 µM | UACC-62 > 40.7 µM

CN/C(=N\C#N)N(Cc1ccccc1)Cc1ccccc1
inactive: NCI-H23 > 100 µM | NCI-H226 > 100 µM | NCI-H460 > 100 µM | HOP-92 > 100 µM | OVCAR-8 > 100 µM | A498 > 100 µM | MOLT-4 > 100 µM | SK-MEL-5 > 100 µM | M14 > 100 µM | SR > 100 µM | TK-10 > 100 µM | KM12 > 100 µM | UO-31 > 100 µM | OVCAR-4 > 100 µM | ACHN > 100 µM | NCI-H522 > 100 µM | UACC-62 > 100 µM

Cc1cc(O)c2c(c1)C(C1OC(CO)C(O)C(O)C1O)c1cc(O)cc(O)c1C2=O (stereo not drawn)
inactive: NCI-H23 > 100 µM | NCI-H226 > 100 µM | NCI-H460 > 100 µM | HOP-92 > 100 µM | OVCAR-8 > 100 µM | A498 > 100 µM | MOLT-4 > 100 µM | SK-MEL-5 > 100 µM | M14 > 100 µM | SR > 100 µM | TK-10 > 100 µM | BT-549 > 100 µM | UO-31 > 100 µM | OVCAR-4 > 100 µM | T47D > 100 µM | ACHN > 100 µM | UACC-62 > 100 µM

CCOC(=O)/C(=C/c1ccccc1)N(CC)CC
inactive: NCI-H23 > 100 µM | NCI-H226 > 100 µM | NCI-H460 > 100 µM | HOP-92 > 100 µM | OVCAR-8 > 100 µM | A498 > 100 µM | MOLT-4 > 100 µM | SK-MEL-5 > 100 µM | M14 > 100 µM | SR > 100 µM | TK-10 > 100 µM | KM12 > 100 µM | UO-31 > 100 µM | OVCAR-4 > 100 µM | ACHN > 100 µM | NCI-H522 > 100 µM | UACC-62 > 100 µM

COc1cc2cc3c4c(cc(OC)c(OC)c4c2cc1OC)CCN3C(=O)CCCC(=O)O
inactive: NCI-H23 > 100 µM | NCI-H226 > 100 µM | NCI-H460 > 100 µM | HOP-92 > 100 µM | A498 > 100 µM | MOLT-4 > 100 µM | SK-MEL-5 > 100 µM | M14 > 100 µM | SR > 100 µM | TK-10 > 100 µM | KM12 > 100 µM | UO-31 > 100 µM | OVCAR-4 34.8 µM | ACHN > 100 µM | NCI-H522 > 100 µM | UACC-62 > 100 µM

CSC1=N/C(=C\c2ccccc2)C(=O)N1CN1CCOCC1
inactive: NCI-H23 > 100 µM | NCI-H226 41.6 µM | Hs-578T 47.5 µM | HOP-92 > 100 µM | OVCAR-8 41.1 µM | A498 > 100 µM | MOLT-4 64.6 µM | SK-MEL-5 50.5 µM | M14 91.8 µM | SR 43.6 µM | TK-10 > 100 µM | KM12 93.5 µM | UO-31 38.3 µM | OVCAR-4 28.2 µM | ACHN 38.9 µM | NCI-H522 51.8 µM | UACC-62 34 µM
